Reference: US9518000B2, “Bicyclo [2.2.1] acid GPR120 modulators” (BRISTOL-MYERS SQUIBB COMPANY, priority 2013, dated 2016)
pEC50: −log10 of the molar value.

What follows are compounds tested against human GPR120 (Homo sapiens (Human), UniProt Q5NUL3) (assay: GPR120 pERK AlphaScreen SureFire Assay (human GPR120 pERK assay)). Conditions: CHOA12 or CHO-K1 cells stably transfected with the short form of human GPR120 receptor; phosphorylated ERK; read-out: EC50 values measured in the human GPR120 pERK assay.
human GPR120, sequence (Q5NUL3 whole entry): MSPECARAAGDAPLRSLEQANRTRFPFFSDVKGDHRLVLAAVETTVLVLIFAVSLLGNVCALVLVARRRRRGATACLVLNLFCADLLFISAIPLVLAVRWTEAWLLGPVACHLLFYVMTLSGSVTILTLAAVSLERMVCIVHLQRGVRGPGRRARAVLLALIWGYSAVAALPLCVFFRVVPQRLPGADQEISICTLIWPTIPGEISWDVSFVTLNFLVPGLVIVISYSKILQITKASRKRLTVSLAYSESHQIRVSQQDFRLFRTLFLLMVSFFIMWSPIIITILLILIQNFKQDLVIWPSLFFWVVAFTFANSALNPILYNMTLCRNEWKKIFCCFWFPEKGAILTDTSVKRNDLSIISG
Format: cell-based
From the text: GPR120 activity was monitored by measuring phosphorylation of ERK (pERK), since G protein receptors are known to activate the ERK signaling cascade either directly and/or through recruitment of arrestin that serves as a scaffold for downstream signaling events.
GPR120 pERK AlphaScreen SureFire Assay
The human and mouse GPR120-mediated intracellular phosphorylated ERK assays were established using CHOA12 cells stably transfected with the short form of human or mouse GPR120 receptor. Cells were cultured in growth medium consisting of F-12 media (Invitrogen Cat. #11765) with 5% Charcoal/Dextran FBS (Invitrogen Cat. #12676-029), 500 μg/mL GENETICIN® (Life Technologies Cat. #10131-027) and 250 μg/mL Zeocin (Invitrogen Cat. #R250-01). Cells were cryo preserved at a concentration of 2×10^7 cells/mL, in 90% Charcoal/Dextran FBS and 10% DMSO, and frozen in liquid nitrogen at a low passage number.
For the pERK assay, 2×10^7 cells/mL cryopreserved human and mouse cells were thawed rapidly in a 37° C. water bath and added to a T-225 flask containing 50 mL growth medium. The flasks were placed in a tissue culture incubator overnight (37° C., 5% CO2). The next day, cells were harvested with trypsin (Gibco Cat. #25300-054), resuspended in serum-containing growth medium and counted using a Cellometer and volume adjusted to a concentration of 0.6×10^6 cells/mL. Cells were plated into 384-well clear bottom tissue culture plates (BD Cat. #353962) at 50 μL/well, for a density of 30,000 cells/well using a MULTIDROP® and incubated for 16-18 hours (overnight) at 37° C. with 5% CO2. The next day, cells were serum starved in 30 μL of F-12 media without any serum or antibiotics for 2 hours at 37° C.
Test compounds were 3-fold, 11-point serially diluted in DMSO in a REMP assay plate (Matrix Cat. #4307) by Tecan and 5 μL was transferred into an ECHO source plate (LabCyte Cat. #LC-0200). Cells were then stimulated with 50 nL of compound dilutions using ECHO liquid handler for 7 minutes at 37° C. Compounds ranged from final assay concentrations of 33.33 μM to 0.56 nM.
The media was then dumped and cells lysed with 20 μL of 1× Lysis buffer from the AlphaScreen SureFire Phospho-ERK 1/2 Kit (Perkin Elmer Cat. #6760617M). The lysis buffer was diluted 5-fold with water before use. The plate was agitated on a shaker for 10 minutes after which 2 μL was transferred into a 384-well white proxiplate (Perkin Elmer Cat. #6008289). The SureFire assay reagent mix was prepared by mixing 60 parts Reaction Buffer, 10 parts Activation Buffer, 1 part Donor Beads, 1 part Acceptor Beads (Perkin Elmer Cat. #TGRES10K). 3.5 μL/well of this reagent mix was manually added to the proxiplate with a multichannel pipettor. Plates were spun down at 1000 rpm for 2 minutes, followed by light-protected incubation at room temperature for 2 hours. The plates were read on the Alpha-technology compatible Envision multilabel plate reader using AlphaScreen protocol according to manufacturer's specifications. The agonist effect of compounds was expressed as 100×(average sample-average blank)/(average total−average blank) where sample is the luminescence activity in the presence of test compound, blank is equal to the luminescence activity in the presence of DMSO control and the total is signal induced by 50 μM linolenic acid as reference compound. Activation data for the test compound over a range of concentrations was plotted as percentage activation of the test compound (100%=maximum response). After correcting for background, EC50 values were determined. The EC50 is defined as the concentration of test compound which produces 50% of the maximal response and was quantified using the 4 parameter logistic equation to fit the data.
The human and mouse GPR120-mediated intracellular phosphorylated ERK assays were also established using CHO-K1 cells stably transfected with the short form of human or mouse GPR120 receptor. […]
In the case of CSc1nccc(COC23CCC(CCCC(=O)O)(CC2)C3)n1 [Example 67, 4-(4-((2-(methylthio)pyrimidin-4-yl)methoxy)bicyclo[2.2.1]heptan-1-yl) butanoic acid], the pEC50 was 5.30.
Compound O=C(O)CCC12CCC(OCCc3cc(OC(F)(F)F)ccc3F)(CC1)C2 [Example 89, 3-((1S,4R)-4-(2-fluoro-5-(trifluoromethoxy)phenethoxy)bicyclo [2.2.1]heptan-1-yl) propanoic acid] has a pEC50 of 5.58.
O=C(O)CCCC12CCC(OCc3cccc(C(F)(F)F)c3Cl)(CC1)C2 [Example 55, 4-(4-(2-chloro-3-(trifluoromethyl)benzyloxy) [2.2.1]heptan-1-yl)butanoic acid] showed a pEC50 of 6.77.
In the case of O=C(O)CCCC12CCC(OCc3c(Cl)ccc(Cl)c3Cl)(CC1)C2 [Example 59, 4-(4-(2,3,6-trichlorobenzyl-oxy)bicyclo [2.2.1]heptan-1-yl)butanoic acid], the pEC50 was 6.21.
With O=C(O)CCCC12CCC(OCc3cccc(Oc4ccccc4)c3)(CC1)C2 [Example 15, 4-(4-(3-phenoxy-benzyloxy)bicyclo[2.2.1]heptan-1-yl) butanoic acid] the pEC50 was 6.44.
“3-(4-(1-(3-fluoro-5-(4- fluorophenoxy)phenyl)ethoxy) bicyclo[2.2.1]heptan-1-yloxy) propanoic acid [Example 82]” was tested, and the pEC50 was 6.01.
O=C(O)CCCC12CCC(OCc3ccccc3SC(F)(F)F)(CC1)C2 [Example 49, 4-(4-(2-(trifluoro-methylthio)benzyloxy)bicyclo [2.2.1]heptan-1-yl)butanoic acid] was tested, and the pEC50 was 6.18.
With O=C(O)CCCC12CCC(OCc3cccc(-c4cccs4)c3)(CC1)C2 [Example 61, 4-(4-(3-(thiophen-2-yl)benzyloxy)bicyclo[2.2.1]heptan-1-yl) butanoic acid] the pEC50 was 6.12.
Compound Cc1ccc(Br)cc1COC12CCC(CCCC(=O)O)(CC1)C2 [Example 62, 4-(4-(5-bromo-2-methylbenzyl-oxy)bicyclo [2.2.1]heptan-1-yl)butanoic acid] has a pEC50 of 6.09.
For O=C(O)COCC12CCC(OCc3ccccc3Oc3ccccc3)(CC1)C2 [Example 72, 2-((4-(2-Phenoxybenzyloxy)bicyclo[2.2.1]heptan-1-yl)methoxy)acetic acid], the pEC50 was 5.95.
In the case of COc1ccc(COC23CCC(CCCC(=O)O)(CC2)C3)c(OC(F)(F)F)c1 [Example 43, 4-(4-(4-methoxy-2-(trifluoromethoxy)benzyloxy)bicyclo[2.2.1]heptan-1-yl) butanoic acid], the pEC50 was 6.49.
For O=C(O)CCCC12CCC(OCc3cc(OC(F)(F)F)ccc3F)(CC1)C2 [Example 33, 4-(4-(2-fluoro-5-(trifluorometh-oxy)benzyloxy)bicyclo[2.2.1]heptan-1-yl) butanoic acid], the pEC50 was 6.59.
COc1ccc(F)c(COC23CCC(CCCC(=O)O)(CC2)C3)c1 [Example 2, 4-(4-(2-fluoro-5-methoxybenzyl-oxy)bicyclo [2.2.1]heptan-1-yl)butanoic acid] gave a pEC50 of 5.74.
Work on Cc1ccc(COC23CCC(CCCC(=O)O)(CC2)C3)cc1F [Example 12, 4-(4-(3-fluoro-4-methylbenzyl-oxy)bicyclo [2.2.1]heptan-1-yl)butanoic acid] yielded a pEC50 of 5.17.
Work on O=C(O)CCCC12CCC(OCc3cccc(C(F)(F)F)c3)(CC1)C2 [Example 65, 4-(4-(3-(trifluoro-methyl)benzyloxy)bicyclo[2.2.1]heptan-1-yl) butanoic acid] yielded a pEC50 of 5.90.
Work on O=C(O)CCCC12CCC(OCc3cc(F)cc(Oc4ccccc4)c3)(CC1)C2 [Example 34, 4-(4-(3-fluoro-5-phenoxybenzyl-oxy)bicyclo [2.2.1]heptan-1-yl)butanoic acid] yielded a pEC50 of 6.40.
For O=C(O)C1CC1CC12CCC(OCc3cccc(Oc4ccccc4)c3)(CC1)C2 (centres unmarked) [Example 95, 2-((4-((3-Phenoxybenzyl)oxy)bicyclo[2.2.1]heptan-1-yl)methyl)cyclopropanecarboxylic acid], the pEC50 was 6.29.
O=C(O)CCCC12CCC(OCc3ccccc3C(F)(F)F)(CC1)C2 [Example 64, 4-(4-(2-(trifluoro-methyl)benzyloxy)bicyclo[2.2.1]heptan-1-yl) butanoic acid] gave a pEC50 of 5.82.
O=C(O)CCCC12CCC(OCc3cccc(C(=O)c4ccccc4)c3)(CC1)C2 [Example 39, 4-(4-(3-benzoyl-benzyloxy)bicyclo[2.2.1]heptan-1-yl) butanoic acid] showed a pEC50 of 6.09.
For O=C(O)CCCC12CCC(OCc3ccccc3Oc3ccccc3)(CC1)C2 [Example 14, 4-(4-(2-phenoxy-benzyloxy)bicyclo[2.2.1]heptan-1-yl) butanoic acid], the pEC50 was 6.57.
CC1(C)Cc2cc(Cl)cc(COC34CCC(COCC(=O)O)(CC3)C4)c2O1 [Example 77, 2-((4-((5-chloro-2,2-dimethyl-2,3-dihydrobenzofuran-7-yl)methoxy)bicyclo[2.2.1]heptan-1-yl)methoxy)acetic acid] was tested, and the pEC50 was 5.34.
In the case of O=C(O)CCCC12CCC(OCc3ccc(Cl)c(Cl)c3)(CC1)C2 [Example 11, 4-(4-(3,4-dichlorobenzyl-oxy)bicyclo[2.2.1]heptan-1-yl) butanoic acid], the pEC50 was 5.96.
Work on OCC(O)CCC12CCC(OCc3cc(F)cc(Oc4ccccc4)c3)(CC1)C2 (single isomer, unassigned) [Example 97, 4-(4-((3-Fluoro-5-phenoxybenzyl)oxy)bicyclo[2.2.1]heptan-1-yl)butane-1,2-diol] yielded a pEC50 of 5.61.
O=C(O)CCCC12CCC(OCc3ccccc3Cl)(CC1)C2 [Example 10, 4-(4-(2-chloro-benzyloxy)bicyclo[2.2.1]heptan-1-yl) butanoic acid] gave a pEC50 of 5.58.
For CC(CCC12CCC(OCc3ccccc3Oc3ccccc3)(CC1)C2)C(=O)O (centres unmarked) [Example 68, 2-Methyl-4-(4-(2-phenoxybenzyloxy)bicyclo[2.2.1]heptan-1-yl)butanoic acid], the pEC50 was 6.00.
With O=C(O)CCCC12CCC(OCc3cc(Cl)ccc3OC(F)(F)F)(CC1)C2 [Example 19, 4-(4-(5-chloro-2-(trifluorometh-oxy)benzyloxy)bicyclo[2.2.1]heptan-1-yl) butanoic acid] the pEC50 was 6.28.
O=C(O)CCCC12CCC(OCc3cccc(Oc4ccc(Cl)cc4)c3)(CC1)C2 [Example 32, 4-(4-(3-(4-chlorophenoxy)benzyloxy)bicyclo [2.2.1]heptan-1-yl) butanoic acid] gave a pEC50 of 6.23.
O=C(O)CCCC12CCC(OCc3cc(Cl)cc(OC(F)(F)F)c3)(CC1)C2 [Example 18, 4-(4-(3-chloro-5-(trifluorometh-oxy)benzyloxy)bicyclo[2.2.1]heptan-1-yl) butanoic acid] gave a pEC50 of 6.60.
For O=C(O)CCCC12CCC(OCc3cc(F)cc(Cl)c3)(CC1)C2 [Example 22, 4-(4-(3-chloro-5-fluorobenzyl-oxy)bicyclo [2.2.1]heptan-1-yl)butanoic acid], the pEC50 was 6.14.
Work on O=C(O)CCCC12CCC(OC3CCc4c(Cl)cc(Cl)cc43)(CC1)C2 (centres unmarked) [Example 9, 4-(4-(4,6-dichloro-2,3-dihydro-1H-inden-1-yloxy)bicyclo[2.2.1]heptan-1-yl) butanoic acid] yielded a pEC50 of 6.22.
For O=C(O)CCCC12CCC(OCc3cccc(OC(F)(F)F)c3)(CC1)C2 [Example 26, 4-(4-(3-(trifluoro-methoxy)benzyl-oxy)bicyclo[2.2.1]heptan-1-yl) butanoic acid], the pEC50 was 6.21.
O=C(O)CCCC12CCC(OCc3cc(C(F)(F)F)ccc3Cl)(CC1)C2 [Example 63, 4-(4-(2-chloro-5-(trifluoromethyl)benzyloxy)bicyclo[2.2.1]heptan-1-yl) butanoic acid] was tested, and the pEC50 was 5.61.
